Where “and” joins values, the source holds several entries; their conditions need not be identical. Identical values can stand only once.
Assays:
Experiment in all cases: Pre-emergence action against weeds (greenhouse)
Assay type in all cases: in vivo
PAPRH (Papaver rhoeas) = test system: PAPRH (Papaver rhoeas)
Excerpt: (§1) Depending on the trial conditions, the soil of the standard field soil is sterile or not sterile.
(§2) The amount of water used for spray application was 300l/ha.
PAPRH (Papaver rhoeas)—Poppy, common
(§3) Insofar as herbicidal effects of the compositions according to the invention compared to mixtures of the prior art or compared to components applied individually against economically important mono- and dicotyledonous harmful plants were the centre of attention, the synergistic herbicidal activities were calculated using Colby's formula (cf. S. R. Colby; Weeds 15 (1967), 20-22): […]

HORVS (Hordeum vulgare) = test system: HORVS (Hordeum vulgare)
Excerpt: as §1, §2
HORVS (Hordeum vulgare)—Barley, spring
as §3

AVEFA (Avenafatua) = test system: AVEFA (Avenafatua)
Excerpt: as §1, §2
AVEFA (Avenafatua)—Wild oat
as §3

EMEAU (Emex australis) = test system: EMEAU (Emex australis)
Excerpt: as §1, §2
EMEAU (Emex australis)—Cathead
as §3

[1] = test system: SORHA (Sorghum halepense)
Excerpt: as §1, §2
SORHA (Sorghum halepense)—Johnsongrass
as §3

CENCY (Centaurea cyanus) = test system: CENCY (Centaurea cyanus)
Excerpt: as §1, §2
CENCY (Centaurea cyanus)—Cornflower
as §3

BROST (Bromus sterilis) = test system: BROST (Bromus sterilis)
Excerpt: as §1, §2
BROST (Bromus sterilis)—Bromegrass, barren
as §3

[2] = test system: RAPRA (Raphanus raphanistrum)
Excerpt: as §1, §2
RAPRA (Raphanus raphanistrum)—Charlock, jointed
as §3

[3] = test system: LOLRI—resistant (Lolium rigidum)
Excerpt: as §1, §2
LOLRI—resistant (Lolium rigidum) resistant to herbicidally active compounds of the HRAC groups A and B; population mixture of field origin having increased metabolic resistance (IMR) and some target site resistance (TSR).
as §3

[4] = test system: LOLRI—sensitive (Lolium rigidum)
Excerpt: as §1, §2
LOLRI—sensitive (Lolium rigidum) sensitive to customary herbicidally active compounds.
as §3

[5] = test system: ALOMY—resistant (Alopecurus myosuroides)
Excerpt: as §1, §2
ALOMY—resistant (Alopecurus myosuroides) resistant to herbicidally active compounds of the HRAC groups A and B; population mixture of field origin having increased metabolic resistance (IMR) and some target site resistance (TSR).
as §3

[6] = test system: TRZAS (Triticum aestivum)
Excerpt: as §1, §2
TRZAS (Triticum aestivum)—Wheat, spring
as §3

BRSNW (Brassica napus) = test system: BRSNW (Brassica napus)
Excerpt: as §1, §2
BRSNW (Brassica napus)—Rape, winter
as §3

[7] = test system: VERHE (Veronica hederaefolia)
Excerpt: as §1, §2
VERHE (Veronica hederaefolia)—Speedwell, iveleaf
as §3

[8] = test system: ALOMY—sensitive (Alopecurus myosuroides)
Excerpt: as §1, §2
ALOMY—sensitive (Alopecurus myosuroides) sensitive to customary herbicidally active compounds.
as §3

Cc1ccccc1CO[C@@H]1C[C@@]2(C(C)C)CC[C@]1(C)O2 (racemic) [Cinmethylin, (+/−)-2-exo-(2-methylbenzyloxy)-1-methyl-4-isopropyl-7-oxabicyclo[2.2.1]heptane]
herbicidal action (PAPRH (Papaver rhoeas); 10 g AS/ha): 0%
herbicidal action (PAPRH (Papaver rhoeas); 25 g AS/ha): 0%
herbicidal action (PAPRH (Papaver rhoeas); 50 g AS/ha): 0%
herbicidal action (HORVS (Hordeum vulgare); 10 g AS/ha): 0%
herbicidal action (HORVS (Hordeum vulgare); 25 g AS/ha): 0%
herbicidal action (HORVS (Hordeum vulgare); 50 g AS/ha): 30%
herbicidal action (HORVS (Hordeum vulgare); 100 g AS/ha): 40%
herbicidal action (HORVS (Hordeum vulgare); 250 g AS/ha): 65%
herbicidal action (HORVS (Hordeum vulgare); 500 g AS/ha): 70%
Herbicidal action (crop damage) HORVS (HORVS (Hordeum vulgare); pre-emergence, dose 50 g AS/ha): 30
herbicidal action (AVEFA (Avenafatua); 10 g AS/ha): 0%
herbicidal action (AVEFA (Avenafatua); 25 g AS/ha): 0%
herbicidal action (AVEFA (Avenafatua); 50 g AS/ha): 0%
herbicidal action (AVEFA (Avenafatua); 100 g AS/ha): 25%
herbicidal action (AVEFA (Avenafatua); 250 g AS/ha): 50%
herbicidal action (AVEFA (Avenafatua); 500 g AS/ha): 70%
Herbicidal action AVEFA (AVEFA (Avenafatua); pre-emergence, dose 50 g AS/ha): 0
herbicidal action (EMEAU (Emex australis); 10 g AS/ha): 0%
herbicidal action (EMEAU (Emex australis); 25 g AS/ha): 0%
herbicidal action (EMEAU (Emex australis); 50 g AS/ha): 0%
herbicidal action (EMEAU (Emex australis); 100 g AS/ha): 0%
herbicidal action (EMEAU (Emex australis); 250 g AS/ha): 0%
herbicidal action (EMEAU (Emex australis); 500 g AS/ha): 0%
Herbicidal action EMEAU (EMEAU (Emex australis); pre-emergence, dose 50 g AS/ha): 0
herbicidal action ([1]; 50 g AS/ha): 65%
herbicidal action ([1]; 100 g AS/ha): 70%
herbicidal action ([1]; 250 g AS/ha): 80%
herbicidal action ([1]; 500 g AS/ha): 100%
Herbicidal action SORHA ([1]; pre-emergence, dose 50 g AS/ha): 65
herbicidal action (CENCY (Centaurea cyanus); 50 g AS/ha): 0%
herbicidal action (CENCY (Centaurea cyanus); 100 g AS/ha): 0%
herbicidal action (CENCY (Centaurea cyanus); 250 g AS/ha): 30%
herbicidal action (CENCY (Centaurea cyanus); 500 g AS/ha): 80%
Herbicidal action CENCY (CENCY (Centaurea cyanus); pre-emergence, dose 50 g AS/ha): 0
herbicidal action (BROST (Bromus sterilis); 10 g AS/ha): 0%
herbicidal action (BROST (Bromus sterilis); 25 g AS/ha): 20%
herbicidal action (BROST (Bromus sterilis); 50 g AS/ha): 50%
herbicidal action (BROST (Bromus sterilis); 100 g AS/ha): 100%
herbicidal action (BROST (Bromus sterilis); 250 g AS/ha): 100%
herbicidal action (BROST (Bromus sterilis); 500 g AS/ha): 100%
Herbicidal action BROST (BROST (Bromus sterilis); pre-emergence, dose 50 g AS/ha): 50
herbicidal action ([2]; 10 g AS/ha): 0%
herbicidal action ([2]; 25 g AS/ha): 0%
herbicidal action ([2]; 50 g AS/ha): 0%
herbicidal action ([2]; 100 g AS/ha): 0%
herbicidal action ([2]; 250 g AS/ha): 30%
herbicidal action ([2]; 500 g AS/ha): 40%
Herbicidal action RAPRA ([2]; pre-emergence, dose 50 g AS/ha): 0
herbicidal action ([3]; 10 g AS/ha): 0%
herbicidal action ([3]; 25 g AS/ha): 70%
herbicidal action ([3]; 50 g AS/ha): 85% and 100%
herbicidal action ([3]; 100 g AS/ha): 100%
herbicidal action ([3]; 250 g AS/ha): 100%
herbicidal action ([3]; 500 g AS/ha): 100%
Herbicidal action LOLRI resistant ([3]; pre-emergence, dose 50 g AS/ha): 100
herbicidal action ([4]; 10 g AS/ha): 0%
herbicidal action ([4]; 25 g AS/ha): 70%
herbicidal action ([4]; 50 g AS/ha): 90%
herbicidal action ([4]; 100 g AS/ha): 100%
herbicidal action ([4]; 250 g AS/ha): 100%
herbicidal action ([4]; 500 g AS/ha): 100%
Herbicidal action LOLRI sensitive ([4]; pre-emergence, dose 50 g AS/ha): 90
herbicidal action ([5]; 10 g AS/ha): 0%
herbicidal action ([5]; 25 g AS/ha): 60%
herbicidal action ([5]; 50 g AS/ha): 70%
herbicidal action ([5]; 100 g AS/ha): 70%
herbicidal action ([5]; 250 g AS/ha): 90%
herbicidal action ([5]; 500 g AS/ha): 100%
Herbicidal action ALOMY resistant ([5]; pre-emergence, dose 50 g AS/ha): 70
herbicidal action ([6]; 10 g AS/ha): 0%
herbicidal action ([6]; 25 g AS/ha): 0%
herbicidal action ([6]; 50 g AS/ha): 30%
herbicidal action ([6]; 100 g AS/ha): 40%
herbicidal action ([6]; 250 g AS/ha): 75%
herbicidal action ([6]; 500 g AS/ha): 90%
Herbicidal action (crop damage) TRZAS ([6]; pre-emergence, dose 50 g AS/ha): 30
herbicidal action (BRSNW (Brassica napus); 10 g AS/ha): 0%
herbicidal action (BRSNW (Brassica napus); 25 g AS/ha): 0%
herbicidal action (BRSNW (Brassica napus); 50 g AS/ha): 0%
herbicidal action (BRSNW (Brassica napus); 100 g AS/ha): 0%
herbicidal action (BRSNW (Brassica napus); 250 g AS/ha): 0%
herbicidal action (BRSNW (Brassica napus); 500 g AS/ha): 10%
Herbicidal action BRSNW (BRSNW (Brassica napus); pre-emergence, dose 50 g AS/ha): 0
herbicidal action ([7]; 10 g AS/ha): 0%
herbicidal action ([7]; 25 g AS/ha): 0%
herbicidal action ([7]; 50 g AS/ha): 0%
herbicidal action ([7]; 100 g AS/ha): 0%
herbicidal action ([7]; 250 g AS/ha): 0%
herbicidal action ([7]; 500 g AS/ha): 0%
Herbicidal action VERHE ([7]; pre-emergence, dose 50 g AS/ha): 0
herbicidal action ([8]; 10 g AS/ha): 0%
herbicidal action ([8]; 25 g AS/ha): 80%
herbicidal action ([8]; 50 g AS/ha): 80%
herbicidal action ([8]; 100 g AS/ha): 90%
herbicidal action ([8]; 250 g AS/ha): 100%
herbicidal action ([8]; 500 g AS/ha): 100%
Herbicidal action ALOMY sensitive ([8]; pre-emergence, dose 50 g AS/ha): 80
